Measured values as given in patent US6187807A, “Methods of use and compositions of (S) (-)-amisulpride” (Sanofi-Synthelabo, priority 1999, dated 2001).

Tests used:
[1] = Antagonism of apomorphine-induced stereotypies; format: in vivo; conditions: rat, in vivo; ip; apomorphine 0.5 mg/kg sc, 30 min after drug
Method: (§1) The propensity of the drugs to induce extrapyramidal side effects was assessed by measuring their potential to induce catalepsy and to antagonize apomorphine-induced stereotyped behaviour and the sedative potential of the drugs was evaluated by their capacity to decrease spontaneous locomotor activity in the rat.
(§2) For scoring stereotypies, the following scale was used: 0: asleep; 1: awake; quiet; 2: locomotion, head bobbing; 3: sniffing; 4: licking; 5: chewing/gnawing. For each rat, a global score was calculated by averaging the 3 stereotypy scores obtained at 10 min intervals.

[2] = tested on: apomorphine-induced stereotypies; assay: Antagonism of apomorphine-induced stereotypies; format: in vivo; conditions: comparison in words
Method: as §1, §2

[3] = in vivo; conditions: rat, ip, measured 2 hours and 4 hours after drug, read-out: Induction of catalepsy (ED50)
Method: as §1
The occurrence of catalepsy in rats was assessed using the four-cork test. This measurement was performed by placing each paw of the rat on a 2.5 cm high cork (diameter 1.2 cm). Distance between contralateral corks was 8 cm and between ipsilateral corks 13 cm. Catalepsy time was measured for a maximum of 2 min at 2 hours, and 4 hours after ip drug treatment.

[4] = in vivo; conditions: rat, ip, 20 min recording, 30 min after drug, read-out: Decrease in spontaneous locomotor activity (ED50)
Method: as §1
Spontaneous locomotor activity was measured for 20 min immediately after rats were placed in the activity cages, 30 min after drug treatment.

[5] = tested on: apomorphine-induced hypermotility; assay: Antagonism of apomorphine-induced hypermotility; conditions: Rattus norvegicus, ip, 0.5 h, read-out: Antagonism of apomorphine-induced hypermotility (ED50)
From the text: These experimental conditions produce low baseline locomotor activity suitable for assessing increases in locomotion produced by apomorphine.

[6] = tested on: d-amphetamine-induced hypermotility; assay: Antagonism of d-amphetamine-induced hypermotility; conditions: for ED50: Rattus norvegicus, ip, 0.5 h, read-out: Antagonism of d-amphetamine-induced hypermotility (ED50)
Method: d-Amphetamine-induced hyperactivity was recorded for 20 min, 30 min after injection of d-amphetamine (2 mg/kg, ip) immediately after placing rats in the activity cages without habituation according to Gh.

Row | SMILES | ED50 [1] | Potency at antagonizing apomorphine-induced stereotypies, (S)(-)-amisulpride compared with (R,S)-amisulpride [2] | ED50 [3] | ED50 [4] | ED50 [5] | ED50 [6] | Potency in tests predictive of antipsychotic activity, compared with (R,S)-amisulpride ([6]; antagonism of apomorphine or amphetamine hyperlocomotion, in words)
1 | CCN1CCC[C@H]1CNC(=O)c1cc(S(=O)(=O)CC)c(N)cc1OC [(S)(-)-amisulpride, (S)-(-)-4-amino-N-[(1-ethylpyrrolidin-2-yl)methyl]-5-(ethylsulfonyl)-2-methoxybenzamide] | 100 mg/kg | equipotent | > 100 mg/kg | 100 mg/kg | 15 mg/kg | 1.2 mg/kg | twice as potent
2 | CCN1CCCC1CNC(=O)c1cc(S(=O)(=O)CC)c(N)cc1OC (racemic) [(R,S)-amisulpride, reference compound] | 115 mg/kg | equipotent | > 100 mg/kg | 100 mg/kg | 30 mg/kg | 3 mg/kg | –
